{"source": "paper PMC7002685", "about": "“Inhibition of vascular calcification by inositol phosphates derivatized with ethylene glycol oligomers” (Nature Communications, 2020)", "key": {"[1]": {"test_system": "GABAA, Chloride Channel, TBOB", "assay": "Off-target 226810", "format": "binding, Rat", "conditions": "10 µM", "experimental": "(§1) The potential off-target activity of 10 µM (OEG2)2-IP4 was assessed against a panel of 87 enzymes, receptors, or ion channels that are used in standard safety pharmacology screens.\n(§2) 3.2. Off-target screening assay\n(§3) The experiments were conducted by a contract research organization (Eurofins Panlabs Discovery\n(§4) Services Taiwan, Ltd.) and details on the respective assays can be retrieved via the catalog number\n(§5) provided in Supplementary Table 11 from the company’s webpage\n(§6) (https://www.eurofinsdiscoveryservices.com/). […]"}, "Dopamine D2S": {"target": "T1, Dopamine D2S (Homo sapiens, UniProt P14416)", "T1 construct": "purchased Eurofins Panlabs Discovery Services Taiwan, Ltd", "T1 sequence (P14416 1-414 isoform P14416-2)": "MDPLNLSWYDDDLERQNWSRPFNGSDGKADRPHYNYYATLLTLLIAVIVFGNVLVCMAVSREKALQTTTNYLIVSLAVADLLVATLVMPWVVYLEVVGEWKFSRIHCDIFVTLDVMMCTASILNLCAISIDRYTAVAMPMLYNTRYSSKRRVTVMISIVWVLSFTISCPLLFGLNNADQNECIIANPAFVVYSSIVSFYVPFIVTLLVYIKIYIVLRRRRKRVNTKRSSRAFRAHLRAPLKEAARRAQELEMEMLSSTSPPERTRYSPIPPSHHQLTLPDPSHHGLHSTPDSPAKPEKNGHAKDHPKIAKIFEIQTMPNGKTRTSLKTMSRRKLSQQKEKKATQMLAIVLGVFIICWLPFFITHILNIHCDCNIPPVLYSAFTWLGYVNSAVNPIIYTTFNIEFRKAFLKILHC", "assay": "Off-target 219700", "format": "binding", "experimental": "as §1, §2\n(§7) The experiments were conducted by a contract research organization (Eurofins Panlabs Discovery Services Taiwan, Ltd.) and details on the respective assays can be retrieved via the catalog number provided in Supplementary Table 11 from the company’s webpage\nas §6\n(§8) At sacrifice the left tibia of animals of the rat model with dietary adenine/high-phosphate-induced uremia and VC was collected, fixed with 70% v/v EtOH and embedded in methyl methacrylate. The trabecular bone compartment is known to be the most metabolic active i.e. actively re-structured bone compartment in CKD. Therefore, histomorphometric and micro-computed tomography (µCT) analysis of bone was performed on the trabecular compartment. Tibial sections were Goldner-stained for histomorphometric analysis of the proximal metaphysis using the AxioVision Release 4.5 software, as […]\n(§9) described previously5. […]"}, "[2]": {"target": "T2, Transporter, Norepinephrine (NET) (Homo sapiens, UniProt P23975)", "T2 construct": "purchased Eurofins Panlabs Discovery Services Taiwan, Ltd", "T2 sequence (P23975 whole entry)": "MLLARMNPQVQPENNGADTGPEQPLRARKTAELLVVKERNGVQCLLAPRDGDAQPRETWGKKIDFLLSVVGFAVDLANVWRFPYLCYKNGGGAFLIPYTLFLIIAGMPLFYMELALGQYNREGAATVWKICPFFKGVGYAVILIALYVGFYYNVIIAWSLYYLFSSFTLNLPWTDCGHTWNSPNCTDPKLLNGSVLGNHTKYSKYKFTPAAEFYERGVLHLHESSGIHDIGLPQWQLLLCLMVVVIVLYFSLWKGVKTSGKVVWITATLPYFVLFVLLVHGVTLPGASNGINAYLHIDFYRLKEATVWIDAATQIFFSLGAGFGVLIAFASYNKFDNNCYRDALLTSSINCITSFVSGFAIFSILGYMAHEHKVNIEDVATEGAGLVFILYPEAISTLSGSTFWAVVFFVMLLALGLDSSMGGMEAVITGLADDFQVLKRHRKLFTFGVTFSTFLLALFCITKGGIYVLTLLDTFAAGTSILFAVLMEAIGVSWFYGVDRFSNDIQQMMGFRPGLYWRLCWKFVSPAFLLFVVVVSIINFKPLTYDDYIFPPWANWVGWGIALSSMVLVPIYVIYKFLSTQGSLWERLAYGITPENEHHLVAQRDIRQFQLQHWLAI", "assay": "Off-target 204410", "format": "binding", "experimental": "as §1, §2, §7, §6, §8, §9"}, "α2B": {"target": "T3, α2B (Homo sapiens, UniProt P18089)", "T3 construct": "purchased Eurofins Panlabs Discovery Services Taiwan, Ltd", "T3 sequence (P18089 whole entry)": "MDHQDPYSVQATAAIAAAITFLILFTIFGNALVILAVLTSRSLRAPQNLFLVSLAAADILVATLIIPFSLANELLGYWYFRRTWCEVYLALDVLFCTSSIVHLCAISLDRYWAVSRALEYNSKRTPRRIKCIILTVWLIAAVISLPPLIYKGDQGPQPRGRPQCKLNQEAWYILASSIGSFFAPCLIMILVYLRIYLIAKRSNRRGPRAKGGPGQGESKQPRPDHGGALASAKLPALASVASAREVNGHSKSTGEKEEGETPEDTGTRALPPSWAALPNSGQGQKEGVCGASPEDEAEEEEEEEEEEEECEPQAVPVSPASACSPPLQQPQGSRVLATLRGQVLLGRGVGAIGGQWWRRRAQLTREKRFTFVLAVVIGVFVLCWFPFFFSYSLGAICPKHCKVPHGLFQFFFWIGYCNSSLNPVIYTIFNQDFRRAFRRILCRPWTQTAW", "assay": "Off-target 203710", "format": "binding", "experimental": "as §1, §2, §3, §4, §5, §6"}, "vascular calcification": {"test_system": "vascular calcification", "assay": "Adenine and high-phosphate-diet-induced rat model of VC", "format": "in vivo, male Wistar rats", "experimental": "Uremia increases the risk for developing VC. Therefore, the effect of (OEG2)2-IP4 on the development of VC was investigated in a previously established adenine and high-phosphate-diet-induced rat model of VC that results in uremia and chronic renal failure. […] (OEG2)2-IP4 was administered via a s.c.-implanted osmotic pump at doses of 5, 15, or 50 mg/kg/day for 4 weeks, and treatment was initiated 1 week after the start of adenine supplementation. […] Animals in this model developed severe CKD (Supplementary Fig. 20), which was accompanied by substantial weight loss (Supplementary Fig. 21). No significant difference in the level of renal failure and body weight loss was observed between the different treatment groups, with the exception of creatinine at week 3 and serum phosphate at sacrifice in the 15 mg/kg/day group (Supplementary Fig. 20).\nThe inhibitory effect of (OEG2)2-IP4 on heart calcifications was significant starting at 15 mg/kg/day (Fig. 6b). The compound’s activity was also evident following von Kossa staining (Fig. 6c) on the thoracic part of the aorta, and quantification of the von Kossa-positive area (Fig. 6d). […] In the femoral artery, reduction in bulk calcium was insignificant for all tested groups, likely due to the low level of calcification detected in the vehicle control (Fig. 6f, Supplementary Table 9).\nMale Wistar rats (Charles River) were housed two per cage with free access to water and standard chow and submitted to a 12-h light/dark cycle. Compounds were administered and doses calculated using the salt form. Animals were randomly assigned to four groups of 12 animals each and given a high-phosphate (1.03%) diet for 2 weeks before starting a special diet to initiate uremia. Uremia/VC was induced in all animals by freely fed diet containing high-phosphate (0.92%), low-protein (2.5% instead of 19%), and adenine (0.75%) for 4 weeks. The diet was again switched to a high-phosphate (1.03%) diet for 1 week, after which rats were sacrificed.\nThe first group was treated with vehicle (double distilled (d.d.) water), the second, third, and fourth groups were treated with daily doses equivalent of 5, 15, and 50 mg/kg of (OEG2)2-IP4, respectively, in 2 mL d.d. water starting 1 week after the administration of the adenine diet. Compounds were delivered continuously for 4 weeks via osmotic pumps (type 2ML4; Alzet, Cupertino, CA, USA) implanted subcutaneously under anesthesia 1 week after the start of the adenine diet. Blood sampling for serum and plasma at baseline, week 1, and week 3 was performed in restrained, conscious animals. […] Serum samples were analyzed for creatinine according to the Jaffe method, calcium (using flame atomic absorption spectrometry[74]), and phosphate (DiaSys Diagnostic Systems, Holzheim, Germany) concentrations. In serum samples taken at sacrifice, the CPP-associated calcium was quantified by calculating the difference between total serum calcium (measured in serum supernatants after centrifugation at 3000 × g, RT, 15 min) and serum calcium after removing CPPs by centrifugation (16,000 × g and 4 °C for 120 min)[26]. In addition, serum aliquots were centrifuged (10,000 × g, 4 °C, 30 min) and T50’s were determined as described above. CPP size was monitored by hourly DLS measurements at 37 °C, after spiking cleared serum samples with calcium (10 mM) and phosphate (6 mM), for a total of 8 h[29].\nAt sacrifice, the heart, the abdominal aorta, left carotids, and femoral arteries were collected. The presence of calcification in each animal was evaluated on paraffin-embedded, von Kossa stained sections of the thoracic aorta (as described previously[74]), as well as by measurement of the total calcium content in the heart and vascular tissue samples by flame atomic absorption spectrometry."}, "Progesterone PR-B": {"target": "T4, Progesterone PR-B (Homo sapiens, UniProt P06401)", "T4 construct": "purchased Eurofins Panlabs Discovery Services Taiwan, Ltd", "T4 sequence (P06401 whole entry)": "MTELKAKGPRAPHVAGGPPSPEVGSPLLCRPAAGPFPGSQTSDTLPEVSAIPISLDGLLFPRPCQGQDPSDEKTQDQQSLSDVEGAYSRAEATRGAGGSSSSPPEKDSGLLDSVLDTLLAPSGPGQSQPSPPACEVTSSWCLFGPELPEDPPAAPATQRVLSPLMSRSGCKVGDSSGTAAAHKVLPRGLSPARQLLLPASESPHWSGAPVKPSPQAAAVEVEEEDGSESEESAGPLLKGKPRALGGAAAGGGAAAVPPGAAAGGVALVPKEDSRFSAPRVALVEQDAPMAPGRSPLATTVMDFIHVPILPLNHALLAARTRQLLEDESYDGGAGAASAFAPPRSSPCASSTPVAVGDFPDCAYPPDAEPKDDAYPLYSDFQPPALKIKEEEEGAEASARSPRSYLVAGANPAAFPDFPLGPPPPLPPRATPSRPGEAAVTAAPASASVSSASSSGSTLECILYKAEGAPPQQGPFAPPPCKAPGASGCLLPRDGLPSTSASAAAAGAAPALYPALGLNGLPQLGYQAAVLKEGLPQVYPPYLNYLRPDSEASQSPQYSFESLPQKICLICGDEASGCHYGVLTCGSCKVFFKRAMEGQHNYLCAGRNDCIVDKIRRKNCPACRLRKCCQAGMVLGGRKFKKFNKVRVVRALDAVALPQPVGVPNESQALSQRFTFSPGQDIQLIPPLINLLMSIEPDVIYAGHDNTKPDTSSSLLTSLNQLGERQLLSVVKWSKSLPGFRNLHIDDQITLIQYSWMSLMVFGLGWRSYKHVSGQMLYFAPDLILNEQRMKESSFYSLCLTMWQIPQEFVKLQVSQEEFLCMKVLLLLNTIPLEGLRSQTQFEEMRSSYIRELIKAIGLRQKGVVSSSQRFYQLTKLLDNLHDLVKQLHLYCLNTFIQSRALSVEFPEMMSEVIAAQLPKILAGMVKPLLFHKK", "assay": "Off-target 299005", "format": "binding", "experimental": "as §1, §2, §7, §6, §8, §9"}}}
{"smiles": "COCCOCCO[C@@H]1[C@@H](OP(=O)(O)O)[C@H](OCCOCCOC)[C@@H](OP(=O)(O)O)[C@@H](OP(=O)(O)O)[C@H]1OP(=O)(O)O", "note": "[(OEG2)2-IP4, 4,6-Di-O-(methoxy-diethyleneglycol)-myo-inositol-1,2,3,5-tetrakis(phosphate)]", "values": [{"measurement": "% Inhibition", "setting": "[1]", "result": -19, "unit": "%"}, {"measurement": "inhibition at 10 µM", "setting": "Dopamine D2S", "result": 7, "unit": "%"}, {"measurement": "inhibition at 10 µM", "setting": "[2]", "result": 20, "unit": "%"}, {"measurement": "inhibition at 10 µM", "setting": "α2B", "result": 3, "unit": "%"}, {"measurement": "Calcium, A. abdominialis", "setting": "vascular calcification; 5 mg/kg/day", "result": "12.71 ± 11.66", "unit": "mg/g tissue"}, {"measurement": "Calcium, A. carotis", "setting": "vascular calcification; 5 mg/kg/day", "result": "11.06 ± 9.10", "unit": "mg/g tissue"}, {"measurement": "Calcium, A. femoralis", "setting": "vascular calcification; 5 mg/kg/day", "result": "4.47 ± 3.95", "unit": "mg/g tissue"}, {"measurement": "Calcium, Heart", "setting": "vascular calcification; 5 mg/kg/day", "result": "0.05 ± 0.03", "unit": "mg/g tissue"}, {"measurement": "Von Kossa positive area in the aorta thoracalis", "setting": "vascular calcification; 5 mg/kg/day", "result": "17.86 ± 12.46", "unit": "%"}, {"measurement": "Mortality (animals)", "setting": "vascular calcification; 5 mg/kg/day, s.c. osmotic pump, 4 weeks", "result": "0/12"}, {"measurement": "Calcium, A. abdominialis", "setting": "vascular calcification; 15 mg/kg/day", "result": "6.24 ± 3.70", "unit": "mg/g tissue"}, {"measurement": "Calcium, A. carotis", "setting": "vascular calcification; 15 mg/kg/day", "result": "5.07 ± 6.23", "unit": "mg/g tissue"}, {"measurement": "Calcium, A. femoralis", "setting": "vascular calcification; 15 mg/kg/day", "result": "4.14 ± 1.92", "unit": "mg/g tissue"}, {"measurement": "Calcium, Heart", "setting": "vascular calcification; 15 mg/kg/day", "result": "0.04 ± 0.01", "unit": "mg/g tissue"}, {"measurement": "Mortality (animals)", "setting": "vascular calcification; 15 mg/kg/day", "result": "1/12"}, {"measurement": "Von Kossa positive area in the aorta thoracalis", "setting": "vascular calcification; 15 mg/kg/day", "result": "14.35 ± 11.49", "unit": "%"}, {"measurement": "Calcium, A. abdominialis", "setting": "vascular calcification; 50 mg/kg/day", "result": "1.69 ± 1.80", "unit": "mg/g tissue"}, {"measurement": "Calcium, A. carotis", "setting": "vascular calcification; 50 mg/kg/day", "result": "0.84 ± 1.11", "unit": "mg/g tissue"}, {"measurement": "Calcium, A. femoralis", "setting": "vascular calcification; 50 mg/kg/day", "result": "2.01 ± 1.41", "unit": "mg/g tissue"}, {"measurement": "Calcium, Heart", "setting": "vascular calcification; 50 mg/kg/day", "result": "0.04 ± 0.02", "unit": "mg/g tissue"}, {"measurement": "Mortality (animals)", "setting": "vascular calcification; 50 mg/kg/day", "result": "1/12"}, {"measurement": "Von Kossa positive area in the aorta thoracalis", "setting": "vascular calcification; 50 mg/kg/day", "result": "2.72 ± 5.97", "unit": "%"}, {"measurement": "calcification in the carotid artery compared to the 5 and 15 mg/kg/day groups", "setting": "vascular calcification; 50 mg/kg/day", "result": "prevented calcification in the carotid artery"}, {"measurement": "calcemic status of the animals", "setting": "vascular calcification; 50 mg/kg/day for 4 weeks", "result": "not influenced"}, {"measurement": "bulk calcium in the abdominal aorta compared to vehicle", "setting": "vascular calcification; 5, 15, 50 mg/kg/day", "result": "trend in a dose-dependent reduction of bulk calcium"}, {"measurement": "reduction in bulk calcium in the femoral artery", "setting": "vascular calcification; all tested groups", "result": "insignificant"}, {"measurement": "dose from which inhibitory effect on heart calcifications was significant", "setting": "vascular calcification; rat, in vivo", "result": "≥ 15", "unit": "mg/kg/day"}, {"measurement": "inhibition at 10 µM", "setting": "Progesterone PR-B", "result": -4, "unit": "%"}]}
